Patent publication US20250171457A1, “NITROGEN-CONTAINING HETEROCYCLIC COMPOUND HAVING NRF2 ACTIVATION EFFECT” (CHUGAI SEIYAKU KABUSHIKI KAISHA, priority 2022, published 2025)

Tested on: Nrf2 transcriptional activity (pARE-Luc reporter) in HepG2 cells
Test: In vitro Nrf2 transcriptional activity measurement by ARE-dependent reporter assay in HepG2 cell
Assay type: cell-based, human
Details: Homo sapiens; HepG2 cells transfected with pARE-Luc, 4 hours at 37° C.; luciferase activity of Example 1-54 or Example 17-23 at 3.75 μM defined as 100%
How it was run: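 Luminescence readout (Bright-Glo) after 4 h, 37° C compound exposure of HepG2 cells carrying the ARE-luciferase vector pGL4.37. Each well converted to % response versus reference compound at 3.75 μM, and EC50 derived from dose-response curves.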

Point of comparison: `COCCN1CC[C@H](Oc2cc(Cl)c(C(=O)N3COc4c(cccc4-c4cc(N5CCOCC5)c(C(=O)O)cc4F)C3)c(Cl)c2)C1` [Compound 8-6, 4-[3-[2,6-Dichloro-4-[(3S)-1-(2-methoxyethyl)pyrrolidin-3-yl]oxybenzoyl]-2,4-dihydro-1,3-benzoxazin-8-yl]-5-fluoro-2-morpholin-4-ylbenzoic acid], EC50 2.7 nM. Against it:
- COCCN1CCN(c2cc(Cl)c(C(=O)N3COc4c(cccc4-c4cc(N5C6CCC5COC6)c(C(=O)O)cc4F)C3)c(Cl)c2)CC1C [Compound 8-5, 4-[3-[2,6-Dichloro-4-[(3S)-4-(2-methoxyethyl)-3-methylpiperazan-1-yl]benzoyl]-2,4-dihydro-1,3-benzoxazin-8-yl]-5-fluoro-2-(3-oxa-8-azabicyclo[3.2.1]octan-8-yl)benzoic acid] — within 1.5-fold, 2.4 nM
- COCCN1CCC[C@@H](Oc2cc(Cl)c(C(=O)N3COc4c(cccc4-c4cc(N5CCOCC5)c(C(=O)O)cc4F)C3)c(Cl)c2)C1 [Compound 8-7, 4-[3-[2,6-Dichloro-4-[(3R)-1-(2-methoxyethyl)piperidin-3-yl]oxybenzoyl]-2,4-dihydro-1,3-benzoxazin-8-yl]-5-fluoro-2-morpholin-4-ylbenzoic acid] — within 1.5-fold, 2.1 nM
- O=C(O)c1cc(F)c(-c2cccc3c2OCN(C(=O)c2c(Cl)cc(OC4CN(CC(F)(F)F)C4)cc2Cl)C3)cc1N1C2CCC1COC2 [Compound 8-8, 4-[3-[2,6-Dichloro-4-[1-(2,2,2-trifluoroethyl)azetidin-3-yl]oxybenzoyl]-2,4-dihydro-1,3-benzoxazin-8-yl]-5-fluoro-2-(3-oxa-8-azabicyclo[3.2.1]octan-8-yl)benzoic acid] — 1.8-fold higher, 4.8 nM
- COCCN1CC2(CCN(c3cc(Cl)c(C(=O)N4COc5c(cccc5-c5cc(N6C7CCC6COC7)c(C(=O)O)cc5F)C4)c(Cl)c3)C2)C1 [Compound 8-9, 4-[3-[2,6-Dichloro-4-[2-(2-methoxyethyl)-2,7-diazaspiro[3.4]octan-7-yl]benzoyl]-2,4-dihydro-1,3-benzoxazin-8-yl]-5-fluoro-2-(3-oxa-8-azabicyclo[3.2.1]octan-8-yl)benzoic acid] — 3.5-fold higher, 9.5 nM
- CN1CCOC2(C1)CN(c1cc(Cl)c(C(=O)N3COc4c(cccc4-c4cc(N5C6CCC5COC6)c(C(=O)O)cc4F)C3)c(Cl)c1)C2 [Compound 9-1, 4-[3-[2,6-Dichloro-4-(8-methyl-5-oxa-2,8-diazaspiro[3.5]nonan-2-yl)benzoyl]-2,4-dihydro-1,3-benzoxazin-8-yl]-5-fluoro-2-(3-oxa-8-azabicyclo[3.2.1]octan-8-yl)benzoic acid] — within 1.5-fold, 3.5 nM
- O=C(O)c1cc(F)c(-c2cccc3c2OCN(C(=O)c2c(Cl)cc(N4CC5(C4)CN(C4CC(F)(F)C4)C5)cc2Cl)C3)cc1N1C2CCC1COC2 [Compound 9-2, 4-[3-[2,6-Dichloro-4-[2-(3,3-difluorocyclobutyl)-2,6-diazaspiro[3.3]heptan-6-yl]benzoyl]-2,4-dihydro-1,3-benzoxazin-8-yl]-5-fluoro-2-(3-oxa-8-azabicyclo[3.2.1]octan-8-yl)benzoic acid] — 2.7-fold higher, 7.4 nM
- O=C(O)c1cc(F)c(-c2cccc3c2OCN(C(=O)c2c(Cl)cc(N4CC5(C4)CN(C4COC4)C5)cc2Cl)C3)cc1N1C2CCC1COC2 [Compound 9-3, 4-[3-[2,6-Dichloro-4-[2-(oxetan-3-yl)-2,6-diazaspiro[3.3]heptan-6-yl]benzoyl]-2,4-dihydro-1,3-benzoxazin-8-yl]-5-fluoro-2-(3-oxa-8-azabicyclo[3.2.1]octan-8-yl)benzoic acid] — 7-fold higher, 19 nM
- O=C(O)c1cc(F)c(-c2cccc3c2OCN(C(=O)c2c(Cl)cc(N4CC5(C4)CN(C4CC4)C5)cc2Cl)C3)cc1N1C2CCC1COC2 [Compound 9-4, 4-[3-[2,6-Dichloro-4-(2-cyclopropyl-2,6-diazaspiro[3.3]heptan-6-yl)benzoyl]-2,4-dihydro-1,3-benzoxazin-8-yl]-5-fluoro-2-(3-oxa-8-azabicyclo[3.2.1]octan-8-yl)benzoic acid] — 2.8-fold higher, 7.5 nM
- CN1CCN(c2cc(Cl)c(C(=O)N3COc4c(cccc4-c4cc(N5C6CCC5COC6)c(C(=O)O)cc4F)C3)c(Cl)c2)C2CC21 (centres unmarked) [Compound 9-5, 4-[3-[2,6-Dichloro-4-(5-methyl-2,5-diazabicyclo[4.1.0]heptan-2-yl)benzoyl]-2,4-dihydro-1,3-benzoxazin-8-yl]-5-fluoro-2-(3-oxa-8-azabicyclo[3.2.1]octan-8-yl)benzoic acid] — 1.7-fold higher, 4.6 nM
- C[C@@H]1CN(c2cc(Cl)c(C(=O)N3COc4c(cccc4-c4cc(N5C6CCC5COC6)c(C(=O)O)cc4F)C3)c(Cl)c2)[C@@H](C)CN1C [Compound 9-6, 4-[3-[2,6-Dichloro-4-[(2S,5R)-2,4,5-trimethylpiperazin-1-yl]benzoyl]-2,4-dihydro-1,3-benzoxazin-8-yl]-5-fluoro-2-(3-oxa-8-azabicyclo[3.2.1]octan-8-yl)benzoic acid] — 2.1-fold higher, 5.7 nM
- CN1C2CCC1CN(c1cc(Cl)c(C(=O)N3COc4c(cccc4-c4cc(N5C6CCC5COC6)c(C(=O)O)cc4F)C3)c(Cl)c1)C2 [Compound 9-7, 4-[3-[2,6-Dichloro-4-(8-methyl-3,8-diazabicyclo[3.2.1]octan-3-yl)benzoyl]-2,4-dihydro-1,3-benzoxazin-8-yl]-5-fluoro-2-(3-oxa-8-azabicyclo[3.2.1]octan-8-yl)benzoic acid] — 5.2-fold higher, 14 nM
- CN1CC2CCC(C1)N2c1cc(Cl)c(C(=O)N2COc3c(cccc3-c3cc(N4C5CCC4COC5)c(C(=O)O)cc3F)C2)c(Cl)c1 [Compound 9-8, 4-[3-[2,6-Dichloro-4-(3-methyl-3,8-diazabicyclo[3.2.1]octan-8-yl)benzoyl]-2,4-dihydro-1,3-benzoxazin-8-yl]-5-fluoro-2-(3-oxa-8-azabicyclo[3.2.1]octan-8-yl)benzoic acid] — within 1.5-fold, 3.5 nM
- C[C@@H]1CN(c2cc(Cl)c(C(=O)N3COc4c(cccc4-c4cc(N5C6CCC5COC6)c(C(=O)O)cc4F)C3)c(Cl)c2)[C@H](C)CN1C [Compound 9-9, 4-[3-[2,6-Dichloro-4-[(2R,5R)-2,4,5-trimethylpiperazin-1-yl]benzoyl]-2,4-dihydro-1,3-benzoxazin-8-yl]-5-fluoro-2-(3-oxa-8-azabicyclo[3.2.1]octan-8-yl)benzoic acid] — 1.8-fold lower, 1.5 nM
- CN1CC2CC(C1)N2c1cc(Cl)c(C(=O)N2COc3c(cccc3-c3cc(N4C5CCC4COC5)c(C(=O)O)cc3F)C2)c(Cl)c1 [Compound 9-10, 4-[3-[2,6-Dichloro-4-(3-methyl-3,6-diazabicyclo[3.1.1]heptan-6-yl)benzoyl]-2,4-dihydro-1,3-benzoxazin-8-yl]-5-fluoro-2-(3-oxa-8-azabicyclo[3.2.1]octan-8-yl)benzoic acid] — 3.3-fold higher, 8.8 nM
- C[C@@H]1CN(C)[C@@H](C)CN1c1cc(Cl)c(C(=O)N2COc3c(cccc3-c3cc(N4C5CCC4COC5)c(C(=O)O)cc3F)C2)c(Cl)c1 [Compound 9-11, 4-[3-[2,6-Dichloro-4-[(2R,5S)-2,4,5-trimethylpiperazin-1-yl]benzoyl]-2,4-dihydro-1,3-benzoxazin-8-yl]-5-fluoro-2-(3-oxa-8-azabicyclo[3.2.1]octan-8-yl)benzoic acid] — 7-fold higher, 19 nM
- C[C@H]1CN(C)CCN1c1cc(Cl)c(C(=O)N2COc3c(cccc3-c3cc(N4C5CCC4COC5)c(C(=O)O)cc3F)C2)c(Cl)c1 [Compound 9-12, 4-[3-[2,6-Dichloro-4-[(2S)-2,4-dimethylpiperazin-1-yl]benzoyl]-2,4-dihydro-1,3-benzoxazin-8-yl]-5-fluoro-2-(3-oxa-8-azabicyclo[3.2.1]octan-8-yl)benzoic acid] — within 1.5-fold, 3.1 nM
- C[C@H]1CN(c2cc(Cl)c(C(=O)N3COc4c(cccc4-c4cc(N5C6CCC5COC6)c(C(=O)O)cc4F)C3)c(Cl)c2)[C@@H](C)CN1C [Compound 9-13, 4-[3-[2,6-Dichloro-4-[(2S,5S)-2,4,5-trimethylpiperazin-1-yl]benzoyl]-2,4-dihydro-1,3-benzoxazin-8-yl]-5-fluoro-2-(3-oxa-8-azabicyclo[3.2.1]octan-8-yl)benzoic acid] — 2.5-fold higher, 6.7 nM
- CN1CCN(c2cc(Cl)c(C(=O)N3COc4c(cccc4-c4cc(N5C6CCC5COC6)c(C(=O)O)cc4F)C3)c(Cl)c2)C(C)(C)C1 [Compound 9-14, 4-[3-[2,6-Dichloro-4-(2,2,4-trimethylpiperazin-1-yl)benzoyl]-2,4-dihydro-1,3-benzoxazin-8-yl]-5-fluoro-2-(3-oxa-8-azabicyclo[3.2.1]octan-8-yl)benzoic acid] — 4.1-fold higher, 11 nM
- O=C(O)c1cc(F)c(-c2cccc3c2OCN(C(=O)c2c(Cl)cc(N4CCN(C5COC5)C5CC54)cc2Cl)C3)cc1N1C2CCC1COC2 (centres unmarked) [Compound 9-15, 4-[3-[2,6-Dichloro-4-[5-(oxetan-3-yl)-2,5-diazabicyclo[4.1.0]heptan-2-yl]benzoyl]-2,4-dihydro-1,3-benzoxazin-8-yl]-5-fluoro-2-(3-oxa-8-azabicyclo[3.2.1]octan-8-yl)benzoic acid] — 5.2-fold higher, 14 nM
- C[C@@H]1CN(C2COC2)CCN1c1cc(Cl)c(C(=O)N2COc3c(cccc3-c3cc(N4C5CCC4COC5)c(C(=O)O)cc3F)C2)c(Cl)c1 [Compound 9-16, 4-[3-[2,6-Dichloro-4-[(2R)-2-methyl-4-(oxetan-3-yl)piperazin-1-yl]benzoyl]-2,4-dihydro-1,3-benzoxazin-8-yl]-5-fluoro-2-(3-oxa-8-azabicyclo[3.2.1]octan-8-yl)benzoic acid] — 1.8-fold higher, 4.8 nM
- O=C(O)c1cc(F)c(-c2cccc3c2OCN(C(=O)c2c(Cl)cc(N4CC5CCC(C4)N5C4COC4)cc2Cl)C3)cc1N1C2CCC1COC2 [Compound 9-17, 4-[3-[2,6-Dichloro-4-[8-(oxetan-3-yl)-3,8-diazabicyclo[3.2.1]octan-3-yl]benzoyl]-2,4-dihydro-1,3-benzoxazin-8-yl]-5-fluoro-2-(3-oxa-8-azabicyclo[3.2.1]octan-8-yl)benzoic acid] — 2.8-fold higher, 7.5 nM
- O=C(O)c1cc(F)c(-c2cccc3c2OCN(C(=O)c2c(Cl)cc(N4C5CCC4CN(C4COC4)C5)cc2Cl)C3)cc1N1C2CCC1COC2 [Compound 9-18, 4-[3-[2,6-Dichloro-4-[3-(oxetan-3-yl)-3,8-diazabicyclo[3.2.1]octan-8-yl]benzoyl]-2,4-dihydro-1,3-benzoxazin-8-yl]-5-fluoro-2-(3-oxa-8-azabicyclo[3.2.1]octan-8-yl)benzoic acid] — 2.4-fold higher, 6.4 nM
